According to US20250074891A1 (Anaxis Pharma Pty Ltd., priority 2021, published 2025):
Read-outs that look alike come from different tables or passages of the source.

How the values were obtained:
[1] = system: U937 human histiocytic leukemia cell line; assay: Cellular assay: inhibition of TSQ induced necroptosis (CellTitre-Glo); details: U937 cells, TSQ cocktail, 48 hours, Table 38, read-out: Inhibition of TSQ-induced necroptosis (IC50 cell-based assay)
Method in brief: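 U937 cells (20,000/well) pre-dosed with compound (10-point, 1:3 from 36 μM, 0.3% DMSO), then TSQ (hTNF-Fc 100 ng/ml, Smac mimetic 500 nM, Q-VD-OPh 10 μM) for 48 h at 37 °C. Viability by CellTiter-Glo luminescence, normalised to DMSO (100%) and DMSO+TSQ (0%); IC50 from 4-parameter fit.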

[2] = biological target: MLKL (full length) (Homo sapiens (Human), UniProt Q8NB16); assay: KINOMEscan binding assay, MLKL (full length); details: Table 36
Sequence of MLKL (full length) (Q8NB16 whole entry): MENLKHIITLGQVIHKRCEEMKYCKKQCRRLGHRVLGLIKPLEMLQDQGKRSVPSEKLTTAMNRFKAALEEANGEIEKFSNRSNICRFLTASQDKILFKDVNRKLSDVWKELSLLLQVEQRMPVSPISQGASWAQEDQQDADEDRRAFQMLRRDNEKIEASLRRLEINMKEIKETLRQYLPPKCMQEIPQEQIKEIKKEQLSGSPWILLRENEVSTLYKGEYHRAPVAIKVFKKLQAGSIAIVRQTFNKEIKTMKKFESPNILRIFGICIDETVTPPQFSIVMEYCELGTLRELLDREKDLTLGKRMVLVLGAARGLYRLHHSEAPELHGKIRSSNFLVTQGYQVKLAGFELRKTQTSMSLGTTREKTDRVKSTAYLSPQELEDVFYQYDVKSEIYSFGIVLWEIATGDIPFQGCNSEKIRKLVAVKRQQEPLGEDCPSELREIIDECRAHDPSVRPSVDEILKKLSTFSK
Experimental: Kinase assays. For most assays, kinase-tagged T7 phage strains were grown in parallel in 24-well blocks in an E. coli host derived from the BL21 strain. E. coli were grown to log-phase and infected with T7 phage from a frozen stock (multiplicity of infection=0.4) and incubated with shaking at 32° C. until lysis (90-150 minutes).
The Hill Slope was set to −1.

[3] = biological target: endogenous MLKL in U937 (Homo sapiens (Human), UniProt Q8NB16); assay: Degradation assay: degradation of endogenous MLKL in human cells (Western blot); details: 24 h incubation, read-out: Degradation of endogenous MLKL in U937 (DC50 cell-based assay in μM)
Sequence of endogenous MLKL in U937 (Q8NB16 whole entry): as above
Experimental: DEGRADATION ASSAY: Screening Compounds Procedure to Evaluate the Activity of Compounds in Degrading Endogenous MLKL in Human Cell
The human monocyte cell line (U937) was seeded on the day of the experiment in a 24-well plate at a cell density of 5*10^5 cells per well in a volume of 0.5 mL per well.
The compound was diluted in DMSO with a starting concentration of 10 mM and titrated stepwise with a dilution of 1:5. 0.5 μL of the compound dilution was added to the appropriate well to achieve a final concentration of 10; 2; 0.4; 0.08 and 0.016 μM. A DMSO only well was included as control.
The cells were incubated for 24 h in the presence of the compound at 37° C. and 10% CO2.
After the 24 h incubation period, the medium was removed and cells washed with 0.5 mL PBS. The cells were then lysed directly in 60 μL of 1×SDS gel loading buffer.
The cell lysate was heat-denatured at […] for 10 min. 10 μL of lysate per well were run on 18-well 4-15% Criterion TGX stain free gels (BIO-RAD). The proteins were then transferred onto nitrocellulose membrane with a wet transfer protocol in the Criterion Blotter (BIO-RAD).
Membranes were blocked with 5% skim milk in TBST. Primary antibody against MLKL (clone 3H1, MABC604 Merck) was used at 1:2000 dilution in TBST with 1% BSA and left shaking over night at 4° C. After washes with TBST, the membranes were incubated with goat anti-rat IgG HRP-conjugated antibody (Southern Biotech) in 1% skim milk TBST at 1:10000 dilution for 1 h at room temperature. After TBST washes the bands were imaged on the ChemiDoc MP Imaging Systm (BIO-RAD) with Immobilion Western Chemiluminescent HRP Substrate Forte (Millipore). The loading control GAPDH was probed for with rabbit anti-GAPDH (CST 14C10) at 1:2000 dilution in 1% BSA TBST over night at 4° C. TBST washes were followed by incubation with goat anti-rabbit IgG HRP-conjugated antibody (Southern Biotech) in 1% skim milk TBST at 1:10000 dilution for 1 h at room temperature followed by TBST washes. The signal was detected as described above.
The band intensity was measured in the ImageLab Software (BIO-RAD) and the MLKL values adjusted for loading with GAPDH. The percentage of degradation was calculated by normalizing the compound treated values to the DMSO only control.

[4] = system: U937 cells; assay: Counter screen: cell viability without TSQ cocktail (off-target effect); design: species or system human
Experimental: Counter screen: In parallel, all compounds were tested for their ability to affect cell viability. The same U937 cells were treated with compound in DMSO without the TSQ cocktail. This counter screen enabled evaluation of off-target effects. In this case, cell viability was measured by CelltiterGlo.

[5] = Homo sapiens, U-937, Table 38, read-out: Off-target effect (IC50 cell-based assay)

SMILES | IC50 ([1]; Homo sapiens, U-937) | Kd [2] | DC50 [3] | IC50 [4, 5] | IC50 [1] | IC50 ([4]; Table 38, read-out: Off-target effect (IC50 cell-based assay))
Cc1ncsc1-c1ccc(CNC(=O)[C@@H]2C[C@@H](O)CN2C(=O)[C@@H](NC(=O)CCCCCCn2ccc(Nc3[nH]nc(-c4ccc(NS(=O)(=O)C(F)F)c(O[C@@H](C)c5ccc(F)cc5)c4)c3C(N)=O)n2)C(C)(C)C)cc1 [Compound 1040, 3-[4-(difluoromethanesulfonamido)-3-[(1S)-1-(4-fluorophenyl)ethoxy]phenyl]-5-{[1-(6-{[(2S)-1-[(2S,4R)-4-hydroxy-2-({[4-(4-methyl-1,3-thiazol-5-yl)phenyl]methyl}carbamoyl)pyrrolidin-1-yl]-3,3-dimethyl-1-oxobutan-2-yl]carbamoyl}hexyl)-1H-pyrazol-3-yl]amino}-1H-pyrazole-4-carboxamide] | < 1 µM | < 0.01 µM | 1 to 10 µM | > 10 µM | – | –
CCS(=O)(=O)Nc1ccc(-c2n[nH]c(Nc3ccc(OCCCCC(=O)N[C@H](C(=O)N4C[C@H](O)C[C@H]4C(=O)NCc4ccc(-c5scnc5C)cc4)C(C)(C)C)cn3)c2C(N)=O)cc1 [Compound 1019, 3-(4-ethanesulfonamidophenyl)-5-{[5-(4-{[(2S)-1-[(2S,4R)-4-hydroxy-2-({[4-(4-methyl-1,3-thiazol-5-yl)phenyl]methyl}carbamoyl)pyrrolidin-1-yl]-3,3-dimethyl-1-oxobutan-2-yl]carbamoyl}butoxy)pyridin-2-yl]amino}-1H-pyrazole-4-carboxamide] | < 1 µM | < 0.01 µM | < 1 µM | > 10 µM | – | –
CCS(=O)(=O)Nc1ccc(-c2n[nH]c(Nc3cnc(OCCCCC(=O)N[C@H](C(=O)N4C[C@H](O)C[C@H]4C(=O)NCc4ccc(-c5scnc5C)cc4)C(C)(C)C)cn3)c2C(N)=O)cc1OCc1ccc(F)cc1 [Compound 1023, 3-{4-ethanesulfonamido-3-[(4-fluorophenyl)methoxy]phenyl}-5-{[5-(4-{[(2S)-1-[(2S,4R)-4-hydroxy-2-({[4-(4-methyl-1,3-thiazol-5-yl)phenyl]methyl}carbamoyl)pyrrolidin-1-yl]-3,3-dimethyl-1-oxobutan-2-yl]carbamoyl}butoxy)pyrazin-2-yl]amino}-1H-pyrazole-4-carboxamide] | < 1 µM | < 0.01 µM | < 1 µM | > 10 µM | – | –
Cc1ncsc1-c1ccc(CNC(=O)[C@@H]2C[C@@H](O)CN2C(=O)[C@@H](NC(=O)c2ccc(Cn3ccc(Nc4[nH]nc(-c5ccc(NS(=O)(=O)C(F)F)c(O[C@@H](C)c6ccc(F)cc6)c5)c4C(N)=O)n3)cc2)C(C)(C)C)cc1 [Compound 1045, 3-[4-(difluoromethanesulfonamido)-3-[(1S)-1-(4-fluorophenyl)ethoxy]phenyl]-5-({1-[(4-{[(2S)-1-[(2S,4R)-4-hydroxy-2-({[4-(4-methyl-1,3-thiazol-5-yl)phenyl]methyl}carbamoyl)pyrrolidin-1-yl]-3,3-dimethyl-1-oxobutan-2-yl]carbamoyl}phenyl)methyl]-1H-pyrazol-3-yl}amino)-1H-pyrazole-4-carboxamide] | < 1 µM | < 0.01 µM | < 1 µM | > 10 µM | – | –
CCS(=O)(=O)Nc1ccc(-c2n[nH]c(Nc3ccc(C(=O)NCC(=O)N[C@@H](C(=O)N4C[C@@H](O)C[C@@H]4C(=O)NCc4ccc(-c5scnc5C)cc4)C(C)(C)C)cn3)c2C(N)=O)cc1O[C@H](C)c1ccc(F)cc1 (stereo in doubt) [Compound 1026, 3-{4-ethanesulfonamido-3-[(1R)-1-(4-fluorophenyl)ethoxy]phenyl}-5-({5-[({[(2R)-1-[(2R,4S)-4-hydroxy-2-({[4-(4-methyl-1,3-thiazol-5-yl)phenyl]methyl}carbamoyl)pyrrolidin-1-yl]-3,3-dimethyl-1-oxobutan-2-yl]carbamoyl}methyl)carbamoyl]pyridin-2-yl}amino)-1H-pyrazole-4-carboxamide] | 1 to 10 µM | < 0.01 µM | 1 to 10 µM | > 10 µM | – | –
CCS(=O)(=O)Nc1ccc(-c2n[nH]c(Nc3ccc(C(=O)OCCCCCCC(=O)N[C@H](C(=O)N4C[C@H](O)C[C@H]4C(=O)NCc4ccc(-c5scnc5C)cc4)C(C)(C)C)cn3)c2C(N)=O)cc1O[C@@H](C)c1ccc(F)cc1 [Compound 1058, 6-{[(2S)-1-[(2S,4R)-4-hydroxy-2-({[4-(4-methyl-1,3-thiazol-5-yl)phenyl]methyl}carbamoyl)pyrrolidin-1-yl]-3,3-dimethyl-1-oxobutan-2-yl]carbamoyl}hexyl 6-[(4-carbamoyl-3-{4-ethanesulfonamido-3-[(1S)-1-(4-fluorophenyl)ethoxy]phenyl}-1H-pyrazol-5-yl)amino]pyridine-3-carboxylate] | < 1 µM | 0.01 to 1 µM | < 1 µM | > 10 µM | – | –
CCS(=O)(=O)Nc1ccc(-c2n[nH]c(Nc3ccc(C(=O)OCCCCC(=O)N[C@H](C(=O)N4CC(O)C[C@H]4C(=O)NCc4ccc(-c5scnc5C)cc4)C(C)(C)C)cn3)c2C(N)=O)cc1O[C@@H](C)c1ccc(F)cc1 (stereo in doubt) [Compound 1056, 4-{[(2S)-1-[(2S,4S)-4-hydroxy-2-({[4-(4-methyl-1,3-thiazol-5-yl)phenyl]methyl}carbamoyl)pyrrolidin-1-yl]-3,3-dimethyl-1-oxobutan-2-yl]carbamoyl}butyl 6-[(4-carbamoyl-3-{4-ethanesulfonamido-3-[(1S)-1-(4-fluorophenyl)ethoxy]phenyl}-1H-pyrazol-5-yl)amino]pyridine-3-carboxylate] | – | 0.01 to 1 µM | < 1 µM | – | < 1 µM | > 10 µM
CCS(=O)(=O)Nc1ccc(-c2n[nH]c(Nc3ccc(C(=O)OCCCCCC(=O)N[C@H](C(=O)N4C[C@H](O)C[C@H]4C(=O)NCc4ccc(-c5scnc5C)cc4)C(C)(C)C)cn3)c2C(N)=O)cc1O[C@@H](C)c1ccc(F)cc1 [Compound 1057, 5-{[(2S)-1-[(2S,4R)-4-hydroxy-2-({[4-(4-methyl-1,3-thiazol-5-yl)phenyl]methyl}carbamoyl)pyrrolidin-1-yl]-3,3-dimethyl-1-oxobutan-2-yl]carbamoyl}pentyl 6-[(4-carbamoyl-3-{4-ethanesulfonamido-3-[(1S)-1-(4-fluorophenyl)ethoxy]phenyl}-1H-pyrazol-5-yl)amino]pyridine-3-carboxylate] | < 1 µM | < 0.01 µM | < 1 µM | > 10 µM | – | –
Cc1ncsc1-c1ccc(CNC(=O)[C@@H]2C[C@@H](O)CN2C(=O)[C@@H](NC(=O)CCCCOc2ccc(Nc3[nH]nc(-c4ccc(NS(=O)(=O)CC(F)(F)F)cc4)c3C(N)=O)nc2)C(C)(C)C)cc1 [Compound 1020, 5-{[5-(4-{[(2S)-1-[(2S,4R)-4-hydroxy-2-({[4-(4-methyl-1,3-thiazol-5-yl)phenyl]methyl}carbamoyl)pyrrolidin-1-yl]-3,3-dimethyl-1-oxobutan-2-yl]carbamoyl}butoxy)pyridin-2-yl]amino}-3-[4-(2,2,2-trifluoroethanesulfonamido)phenyl]-1H-pyrazole-4-carboxamide] | < 1 µM | < 0.01 µM | < 1 µM | > 10 µM | – | –
